Laboratory results reported in publication PMC8224453, “A New PqsR Inverse Agonist Potentiates Tobramycin Efficacy to Eradicate Pseudomonas aeruginosa Biofilms” (Advanced Science, 2021).

How the values were obtained:
[1] = Permeability across Calu-3 monolayer; format: in vitro ADME; conditions: human; Calu‐3 lung epithelial cells
Description: subtraction and plotted using GraphPad Prism 8.4.2 (GraphPad Software, San Diego, CA, […]
USA). Solubility (S) was determined based on the First X value of AUC function using a […]
For the evaluation of combined phase I and phase II metabolic stability, the compound (1 μM) was incubated with 1 mg/mL pooled liver S9 fraction from the respective species (Xenotech), […]
2 mM NADPH, 1 mM UDPGA, 10 mM MgCl2, 5 mM GSH and 0.1 mM PAPS at 37 °C for […]
0, 5, 15, 30 or 60 min. The metabolic stability of Testosterone (1 μM) and verapamil (1 μM) […]
were determined in parallel to confirm the enzymatic activity of the S9 fraction. The […]
incubation was stopped by precipitation of S9 enzymes with 2 volumes of cold acetonitrile […]
containing internal standard (750 nM Diphenhydramine). Samples were stored on ice for 10 […]
Concentration of the remaining test compound at the different time points was analyzed by […]
Permeability of compound 4 and 17 was assessed in vitro with Calu-3 HTB-55 cell line (ATCC). […]
Pyruvate. […] TEER was monitored during the experiment and epithelial barriers were considered compromised if the TEER fell below 300 during 4 h of experiment duration. […] 50 µL of sample was mixed with 150 µL of ice-cold acetonitrile containing internal standard diphenhydramine (1 µM) and the concentration of compound was analyzed with LC-MS/MS. […]

[2] = Cytotoxicity assay in HepG2; format: cell-based; conditions: human, HepG2 cells, read-out: Cytotoxicity, viable cells
Description: Hep G2 or HEK293 cells (2 × 10^5 cells per well) were seeded in 24-well, flat-bottomed plates. Culturing of cells, incubations, and OD measurements were performed as described previously with slight modifications.[8] Twenty-four hours after seeding the cells, the incubation was started by the addition of test compound in a final DMSO concentration of
1%. […] At least two independent measurements were performed for each compound.

PA14 wt biofilm = experiment: Minimum biofilm eradicating concentration (MBEC) assay; format: cell-based, Pseudomonas aeruginosa
Text: page 21: wild type (PA14 wt) was purchased from DSMZ, the German Collection of Microorganism and Cell Cultures GmbH (PA14 = DSMZ19882) and cultured in minimal proteose peptone glucose ammonium salt (PPGAS) medium. […] KCl, 19 g/L Tris-HCl, 10 g/L peptone, 5 g/L glucose and 0.1 g/L MgSO4∙7H2O. The pH value […] Agar solution was […] resulting solution was sterilized before being plated. The minimum inhibitory concentration (IC) of drug-free SqNPs, compound 4 prepared either in dimethyl sulfoxide (DMSO) or loaded in SqNPs, free Tob, Tob-loaded SqNPs, and Tob and compound 4 co-loaded SqNPs against planktonic PA14 wt were determined by standard microbroth dilution assays in 96-well plates. PA14 wt suspension was prepared from mid-log cultures in PPGAS medium and […] PBS served as a control. […] The MBECs of free Tob, Tob-loaded SqNPs, free Tob plus free compound 4 prepared in DMSO, and Tob and compound (4) co-loaded SqNPs were determined by the MBEC assay as reported in previous study.[2,7] […] The biofilm-eradicating efficacy was assessed according to viable bacterial load determined using dilution in PBS/0.05% Tween20 and plating on agar S20 page 22: plates to count CFU after overnight incubation at […]. […] Using GraphPad Prism 8.4.2, the AUC was calculated for each condition. […] After a 24h treatment, efficacy was assessed by determination of colony-forming units per millilitre (CFU/mL). […]

Compound | Papp at 4 h [1] [×10⁻⁶ cm/s] | viability at 48 h, 25 × 10^−6 M ([2]; HepG2, @25 × 10^−6 M) [%] | PA14 wt biofilm inhibitory effect (PA14 wt biofilm; controls of the MBEC assay, compound 4 at 20 μM) | viability at 48 h, 75 × 10^−6 M ([2]; HepG2, @75 × 10^−6 M) [%] | MBEC (Tob concentration for complete biofilm eradication) (PA14 wt biofilm; PA14 wt biofilm, 24 h treatment, 4 constant at 20 × 10^−6 M where used)
FC(F)(F)c1cc(NCc2cn(-c3ccc(Oc4ccccc4)cc3)nn2)ccn1 [Compound 4] | 5.3 | 55 | did not show any PA14 wt biofilm inhibitory effects |  | 
COc1ccc(-n2cc(CNc3ccnc(C(F)(F)F)c3)nn2)cc1Cl [Compound 17] | 11.4 |  |  | 68 | 
NC[C@H]1O[C@H](O[C@H]2[C@H](O)[C@@H](O[C@H]3O[C@H](CO)[C@@H](O)[C@H](N)[C@H]3O)[C@H](N)C[C@@H]2N)[C@H](N)C[C@@H]1O [Tobramycin, tobramycin] |  |  |  |  | higher than 200 µg mL^−1
